Data published in paper PMC9599757, “Leveraging the Structure of DNAJA1 to Discover Novel Potential Pancreatic Cancer Therapies” (Biomolecules, 2022).

What was measured:
DNAJA1 [1] = target: T1, DNAJA1 (Homo sapiens, UniProt P31689); assay: 1D […] NMR line broadening and 2D 1H-15N HSQC chemical shift perturbation; type: binding
T1 construct: DNAJA1-107 (residues 1 to 107, J-domain and linker, N-terminal 6x-His tag)

DNAJA1 [2] = target: T1, DNAJA1; assay: ITC; STD NMR and 2D 1H-15N HSQC chemical shift perturbation; type: binding
[3] = target: T2, DNAJA1-107 (residues 1 to 107 of human DnaJ homolog subfamily A member 1) (human, UniProt P31689 1-107); assay: NMR titration; 15N-DNAJA1-107 mixed with ANT3 (232-272) at DNAJA1-107:ANT3 molar ratios 10:1, 5:1 and 1:1 (50 uM each at equal molarity); 10 mM Tris-HCl, 1 mM EDTA, 6% trehalose, pH 8.0; 2D 1H-15N HSQC; immediate, concentration-dependent precipitation on mixing taken as the sign of interaction; conditions: both partners purified
T2 construct: The methods name an N-terminal 6x-histidine tag; 15N-labelled for the NMR experiment with ANT3; source: for the pull-down immobilised on cobalt resin; not shown: His6, N-terminal, kept

Molecule: Nc1ncnc2c1ncn2[C@@H]1O[C@H](COP(=O)(O)OP(=O)(O)O)[C@@H](O)[C@H]1O [ADP]
- 1D 31P NMR line broadening and 2D 1H-15N HSQC chemical shift perturbation (DNAJA1 [1]): ADP, O-phospho-L-serine, O-phospho-L-tyrosine, and dihydroxyacetone phosphate exhibited specific binding to DNAJA1-107

Molecule: CCOc1ccc(-c2cc(OC(=O)c3cccs3)c3c(C)oc(C)c3c(=O)c2)cc1 [compound 7727968, 6-(4-ethoxyphenyl)-1,3-dimethyl-4-oxo-4H-cyclohepta[c]furan-8-yl 2-thiophenecarboxylate]
- Kd (DNAJA1 [2]): 10 µM

Molecule: O=C(c1ccc(Br)s1)N1CCN(c2ccc(F)cc2)CC1 [compound 9101204, 1-[(5-bromo-2-thienyl)carbonyl]-4-(4-fluorophenyl)piperazine]
- Kd (DNAJA1 [2]): 0.1 ± 0.3 µM

B1: Recombinant Human ADP/ATP translocase 3 (ANT3), amino acids 232-272 (domain or fragment, UniProt P12236 232-272, looked up)
chain: DTVRRRMMMQSGRKGADIMYTGTVDCWRKIFRDEGGKAFFK
notes: ADP/ATP translocase 3 (ANT3), human, amino acids 232-272; The construct included an N-terminal 6xHis-KSI tag to aid purification and solubility; also called ANT3 construct; source: bought: CUSABIO, catalog number CSB-EP021520HU1
- binding result [3]: binds
